# Results reported in PMC11794154, “Molecular basis for the diversification of lincosamide biosynthesis by pyridoxal phosphate-dependent enzymes” (Nature Chemistry, 2024).
# Assays:
# [1] = target: T1, CcbF (Streptomyces caelestis, UniProt E9JES7); experiment: X-ray crystal structure, […] Å; type: binding; settings: covalent; internal aldimine with Lys260
# T1 construct: full-length gene in pET42b (NdeI/XhoI), C-terminal His8 tag, expressed in E. coli BLR(DE3)/pGro7; catalytic Lys260; printed ccbF forward primer is identical to the lmbF one (likely misprint)
# T1 sequence (E9JES7 entry or part of it): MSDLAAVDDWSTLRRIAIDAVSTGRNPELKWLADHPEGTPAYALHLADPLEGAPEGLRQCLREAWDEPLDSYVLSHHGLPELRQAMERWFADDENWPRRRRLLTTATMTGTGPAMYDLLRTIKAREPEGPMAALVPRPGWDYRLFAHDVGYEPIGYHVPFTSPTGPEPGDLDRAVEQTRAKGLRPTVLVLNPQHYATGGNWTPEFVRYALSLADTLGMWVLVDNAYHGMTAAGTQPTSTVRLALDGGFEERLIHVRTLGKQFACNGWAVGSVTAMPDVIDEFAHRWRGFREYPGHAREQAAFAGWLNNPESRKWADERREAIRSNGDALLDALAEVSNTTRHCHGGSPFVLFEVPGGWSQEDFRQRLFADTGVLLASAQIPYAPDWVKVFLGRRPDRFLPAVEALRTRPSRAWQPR
# [2] = target: T2, LmbF (Streptomyces lincolnensis, UniProt A9Y8R7); experiment: X-ray crystal structure, […] Å; type: binding; settings: covalent; internal aldimine with Lys270
# T2 construct: full-length gene in pET42b (NdeI/XhoI), C-terminal His8 tag, expressed in E. coli BLR(DE3)/pGro7; active site at dimer interface; catalytic Lys270
# T2 sequence (A9Y8R7 entry or part of it): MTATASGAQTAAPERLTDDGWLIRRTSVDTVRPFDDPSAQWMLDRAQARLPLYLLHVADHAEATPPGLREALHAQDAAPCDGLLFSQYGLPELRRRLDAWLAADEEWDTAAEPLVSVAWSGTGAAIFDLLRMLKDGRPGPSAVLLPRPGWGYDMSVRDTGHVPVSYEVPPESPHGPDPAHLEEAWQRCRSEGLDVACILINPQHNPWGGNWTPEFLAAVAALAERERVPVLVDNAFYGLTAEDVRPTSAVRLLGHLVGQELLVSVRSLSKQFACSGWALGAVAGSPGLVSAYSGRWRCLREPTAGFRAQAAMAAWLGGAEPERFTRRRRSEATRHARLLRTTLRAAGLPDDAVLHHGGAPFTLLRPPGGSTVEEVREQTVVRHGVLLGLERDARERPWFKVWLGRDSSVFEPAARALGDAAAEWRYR
structure (smiles),measurement,setting,value
Cc1ncc(COP(=O)(O)O)c(C=O)c1O [PLP],"X-ray crystal structure, 1.8 Å",[1],we solved the X-ray crystal structures of LmbF and CcbF with PLP
same,"X-ray crystal structure, 1.7 Å",[2],we solved the X-ray crystal structures of LmbF and CcbF with PLP
